Test results reported in US12466820B2, “Amino quinazoline derivatives as P2X3 inhibitors” (CHIESI FARMACEUTICI S.p.A., priority 2019, dated 2025).

Key:
h P2X2/3 = target: T1, h P2X2/3 (Homo sapiens, UniProt P56373+Q9UBL9); assay: In vitro electrophysiology assay for P2X2/3 (same protocol, 10 μM ATP as agonist); assay type: cell-based; conditions: Table 7, range of activity
T1 sequence (P56373 1-397): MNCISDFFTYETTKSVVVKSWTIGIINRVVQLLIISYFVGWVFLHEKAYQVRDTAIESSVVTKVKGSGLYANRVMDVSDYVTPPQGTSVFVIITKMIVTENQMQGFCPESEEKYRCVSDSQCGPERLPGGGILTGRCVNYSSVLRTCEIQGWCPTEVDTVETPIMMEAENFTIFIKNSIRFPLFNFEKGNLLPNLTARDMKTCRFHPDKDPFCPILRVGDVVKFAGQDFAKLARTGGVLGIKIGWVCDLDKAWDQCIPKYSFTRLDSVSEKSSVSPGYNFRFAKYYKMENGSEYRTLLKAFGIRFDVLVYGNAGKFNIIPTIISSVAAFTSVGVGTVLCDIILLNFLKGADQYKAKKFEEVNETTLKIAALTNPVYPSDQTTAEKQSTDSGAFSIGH
T1 sequence (Q9UBL9 1-471): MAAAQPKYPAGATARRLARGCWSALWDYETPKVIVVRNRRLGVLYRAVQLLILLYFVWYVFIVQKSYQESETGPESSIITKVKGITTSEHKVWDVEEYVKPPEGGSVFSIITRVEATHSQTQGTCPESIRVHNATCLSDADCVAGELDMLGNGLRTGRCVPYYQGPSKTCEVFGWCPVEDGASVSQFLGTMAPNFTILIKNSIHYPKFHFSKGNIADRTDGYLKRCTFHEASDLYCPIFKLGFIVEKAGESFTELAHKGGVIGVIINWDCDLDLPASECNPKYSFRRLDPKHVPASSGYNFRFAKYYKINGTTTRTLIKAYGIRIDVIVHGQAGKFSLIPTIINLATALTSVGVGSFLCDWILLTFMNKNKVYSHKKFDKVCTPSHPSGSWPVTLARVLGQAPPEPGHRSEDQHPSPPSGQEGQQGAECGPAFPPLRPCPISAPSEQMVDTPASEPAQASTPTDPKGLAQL
Description: Cells expressing P2X3 receptors were grown according to standard practice and maintained at 37° C. in a 5% humidified CO2 atmosphere. The cells were seeded into T175 flask 2 days prior to the day of the assay and dissociated from the flasks using TrypLE when grown to confluence of 80-90%. The dissociated cells were resuspended in serum free media at a cell density of 3×10^6 cells/ml and loaded onto the Sophion Qube automated patch-clamp system. The extracellular assay buffer contained 145 mM NaCl, 4 mM KCl, 2 mM CaCl2), 1 mM MgCl2, 10 mM HEPES, and 10 mM glucose at pH 7.4. The intracellular assay solution contained 140 mM CsF, 10 mM NaCl, 10 mM EGTA, 10 mM HEPES at pH 7.2. Agonist stock solutions were prepared in H2O and diluted in bath solution prior to use. All antagonists were prepared as 10 mM stock solutions in DMSO and diluted in bath solution prior to use. All experiments were performed under the whole-cell patch clamp configuration at room temperature with 384 individual cells being voltage clamped at −60 mV simultaneously on the Sophion Qube instrument. Two baseline responses were established with the application of α,β-MeATP (800 nM), with the subsequent agonist applications being washed out using extracellular assay buffer containing 0.5 U/ml apyrase. Following the second agonist application, antagonist was incubated in the absence of α,β-MeATP for 10 minutes. After antagonist preincubation, 800 nM α,β-MeATP and antagonist were co-administered to determine the inhibitory effect of the antagonist. One concentration of an antagonist was assessed against a single cell, with different concentrations of the antagonist applied to other cells on the 384 recording substrate. The control P2X3 current amplitude was taken from the peak current amplitude from the second agonist response prior to preincubation with antagonist. The peak P2X3 current amplitude in the presence of antagonist was used to calculate the inhibitory effect at each concentration of the antagonist according to the following equation: […]
Concentration-response curves were constructed from ten different concentrations with each concentration of antagonist tested on at least two individual cells. The concentration of the antagonist to inhibit P2X3 current by 50% (IC50) was determined by fitting the data with the following equation: […]
Where ‘a’ is minimum response, ‘b’ is maximum response, ‘c’ is IC50 and ‘d’ is Hill slope.
Representative compound of the present invention have been also tested for P2X2/3 receptor.
The same assay protocol was used for the P2X2/3 assay as the P2X3 assay with two modifications: 1) 10 μM ATP was used as the agonist; and 2) the mean current amplitude was measured seven seconds after the application of agonist.

h P2X3 = target: T2, h P2X3 (Homo sapiens, UniProt P56373); assay: In vitro electrophysiology assay for P2X3 (automated whole-cell patch clamp, Sophion Qube); assay type: cell-based; conditions: range of activity
T2 sequence (P56373 1-397): T1 sequence (P56373 1-397)
Summary of the method: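 Whole-cell automated patch clamp at room temperature, cells held at −60 mV; after two 800 nM α,β-MeATP baseline responses, antagonist preincubated 10 min then co-applied with 800 nM α,β-MeATP. Inhibition of peak current vs second agonist response; IC50 from 10-concentration curves, one concentration per cell.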

[1] = Table 6, inhibition of P2X3 current, agonist α,β-MeATP (800 nM)

Row | Compound | IC50 (h P2X2/3) | IC50 (h P2X3; [1]) | IC50 (h P2X3; Table 7)
1 | COc1cc(-c2ncc(C)s2)cc2c(NC(C)c3noc(C)n3)ncnc12 (stereo not drawn) [Example 107, 8-methoxy-N-(1-(5-methyl-1,2,4-oxadiazol-3-yl)ethyl)-6-(5-methylthiazol-2-yl)quinazolin-4-amine] | 316 to 3160 nM | < 316 nM | < 316 nM
2 | COc1cc(-c2ncc(F)cn2)cc2c(NC(C)c3noc(C)n3)ncnc12 (stereo not drawn) [Example 108, 6-(5-fluoropyrimidin-2-yl)-8-methoxy-N-(1-(5-methyl-1,2,4-oxadiazol-3-yl)ethyl)quinazolin-4-amine] | 3160 to 31600 nM | 316 to 3160 nM | 316 to 3160 nM
3 | COc1cc(-c2ncc(F)cn2)cc2c(NC(C)c3nnc(C)s3)ncnc12 (stereo not drawn) [Example 109, 6-(5-fluoropyrimidin-2-yl)-8-methoxy-N-(1-(5-methyl-1,3,4-thiadiazol-2-yl)ethyl)quinazolin-4-amine] | 3160 to 31600 nM | 316 to 3160 nM | 316 to 3160 nM
4 | COc1cc(-c2ccc(C)cn2)cc2c(NCc3noc(C)n3)ncnc12 [Example 136, 8-methoxy-N-((5-methyl-1,2,4-oxadiazol-3-yl)methyl)-6-(5-methylpyridin-2-yl)quinazolin-4-amine] | 3160 to 31600 nM | 316 to 3160 nM | 316 to 3160 nM
5 | COc1cc(-c2ccc(C)cn2)cc2c(NCc3nc(C)no3)ncnc12 [Example 142, 8-methoxy-N-[(3-methyl-1,2,4-oxadiazol-5-yl)methyl]-6-(5-methyl-2-pyridyl)quinazolin-4-amine] | 3160 to 31600 nM | < 316 nM | < 316 nM
6 | COc1cc(-c2ccc(C)cn2)cc2c(NCc3nnc(C)o3)ncnc12 [Example 143, 8-methoxy-N-[(5-methyl-1,3,4-oxadiazol-2-yl)methyl]-6-(5-methyl-2-pyridyl)quinazolin-4-amine] | 3160 to 31600 nM | < 316 nM | < 316 nM
7 | COc1cc(-c2ccc(F)cn2)cc2c(NCc3ccc(C)nc3)ncnc12 [Example 149, 6-(5-fluoropyridin-2-yl)-8-methoxy-N-((6-methylpyridin-3-yl)methyl)quinazolin-4-amine] | 3160 to 31600 nM | < 316 nM | < 316 nM
8 | COc1cc(-c2ncc(C)cn2)cc2c(NCc3ccn(C)c(=O)c3)ncnc12 [Example 151, 4-(((8-methoxy-6-(5-methylpyrimidin-2-yl)quinazolin-4-yl)amino)methyl)-1-methylpyridin-2(1H)-one] | 316 to 3160 nM | < 316 nM | < 316 nM
9 | COc1cc(-c2ncc(C)cn2)cc2c(NCc3nnc(C)s3)ncnc12 [Example 153, 8-methoxy-N-((5-methyl-1,3,4-thiadiazol-2-yl)methyl)-6-(5-methylpyrimidin-2-yl)quinazolin-4-amine] | 3160 to 31600 nM | < 316 nM | < 316 nM
10 | COc1cc(-c2ncc(C)cn2)cc2c(NCc3ccc(C)nc3)ncnc12 [Example 154, 8-methoxy-N-((6-methylpyridin-3-yl)methyl)-6-(5-methylpyrimidin-2-yl)quinazolin-4-amine] | 316 to 3160 nM | < 316 nM | < 316 nM

More lines, now with the values ahead:

Row | IC50 (h P2X2/3) | IC50 (h P2X3; [1]) | IC50 (h P2X3; Table 7) | Compound
11 | 316 to 3160 nM | < 316 nM | < 316 nM | COc1cc(-c2ncc(C)s2)cc2c(NCc3cc(C)no3)ncnc12 [Example 111, 8-methoxy-N-[(3-methylisoxazol-5-yl)methyl]-6-(5-methylthiazol-2-yl)quinazolin-4-amine]
12 | 316 to 3160 nM | < 316 nM | < 316 nM | COc1cc(-c2ncc(C)s2)cc2c(NCc3nc(C(F)(F)F)no3)ncnc12 [Example 112, 8-methoxy-6-(5-methylthiazol-2-yl)-N-[[3-(trifluoromethyl)-1,2,4-oxadiazol-5-yl]methyl]quinazolin-4-amine]
13 | 316 to 3160 nM | < 316 nM | < 316 nM | COc1cc(-c2ncc(C)s2)cc2c(NCc3nc(C)no3)ncnc12 [Example 113, 8-methoxy-N-[(3-methyl-1,2,4-oxadiazol-5-yl)methyl]-6-(5-methylthiazol-2-yl)quinazolin-4-amine]
14 | 316 to 3160 nM | < 316 nM | < 316 nM | COc1cc(-c2ncc(C)s2)cc2c(NCc3ccc(C(F)(F)F)cn3)ncnc12 [Example 116, 8-methoxy-6-(5-methylthiazol-2-yl)-N-((5-(trifluoromethyl)pyridin-2-yl)methyl)quinazolin-4-amine]
15 | 316 to 3160 nM | < 316 nM | < 316 nM | COc1cc(-c2ncc(C)s2)cc2c(NCc3ccc(Cl)cn3)ncnc12 [Example 117, N-((5-chloropyridin-2-yl)methyl)-8-methoxy-6-(5-methylthiazol-2-yl)quinazolin-4-amine]
16 | 3160 to 31600 nM | < 316 nM | < 316 nM | COc1cc(-c2ccc(C)cn2)cc2c(NCc3cc(C)no3)ncnc12 [Example 137, 8-methoxy-N-((3-methylisoxazol-5-yl)methyl)-6-(5-methylpyridin-2-yl)quinazolin-4-amine]
17 | 3160 to 31600 nM | < 316 nM | < 316 nM | COc1cc(-c2ncc(C)cn2)cc2c(NCc3nc(C(F)(F)F)no3)ncnc12 [Example 144, 8-methoxy-6-(5-methylpyrimidin-2-yl)-N-[[3-(trifluoromethyl)-1,2,4-oxadiazol-5-yl]methyl]quinazolin-4-amine]
18 | 316 to 3160 nM | < 316 nM | < 316 nM | COc1cc(-c2ncc(C)cn2)cc2c(NCc3cnc(C(F)(F)F)nc3)ncnc12 [Example 145, 8-methoxy-6-(5-methylpyrimidin-2-yl)-N-[[2-(trifluoromethyl)pyrimidin-5-yl]methyl]quinazolin-4-amine]
19 | 3160 to 31600 nM | < 316 nM | < 316 nM | COc1cc(-c2ccc(F)cn2)cc2c(NCc3cnc(C(F)(F)F)nc3)ncnc12 [Example 146, 6-(5-fluoropyridin-2-yl)-8-methoxy-N-((2-(trifluoromethyl)pyrimidin-5-yl)methyl)quinazolin-4-amine]
20 | 3160 to 31600 nM | < 316 nM | < 316 nM | COc1cc(-c2ccc(F)cn2)cc2c(NCc3ccc(C(F)(F)F)nc3)ncnc12 [Example 150, 6-(5-fluoropyridin-2-yl)-8-methoxy-N-((6-(trifluoromethyl)pyridin-3-yl)methyl)quinazolin-4-amineamine]
21 | 3160 to 31600 nM | < 316 nM | < 316 nM | COc1cc(-c2ncc(C)cn2)cc2c(NCc3cccc(=O)[nH]3)ncnc12 [Example 152, 6-(((8-methoxy-6-(5-methylpyrimidin-2-yl)quinazolin-4-yl)amino)methyl)pyridin-2(1H)-one]
22 | 316 to 3160 nM | < 316 nM | < 316 nM | COc1cc(-c2ncc(C)cn2)cc2c(NCc3ccc(C(F)(F)F)nc3)ncnc12 [Example 155]
